# Test results: patent US12077503B2, “Substituted cyclic amides and their use as herbicides” (FMC CORPORATION, priority 2015, dated 2024)
# Key:
# Type in all cases: in vivo
# [1] = system: Kochia (Kochia scoparia); assay: Test A preemergence; conditions: for Plant response rating, Kochia: 125 g ai/ha, preemergence, 0 to 100 scale (0 no effect, 100 complete control); for Kochia plant response rating (0 to 100 scale, 0 is no effect, 100 is complete control): visual injury approx. 10 d
# In short: (§1)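 Preemergence directed soil spray on seeded pots, or postemergence application to plants 2–10 cm, one- to two-leaf. Solvent mixture non-phytotoxic, with surfactant. Scored ~10 d later, visually, 0–100 vs untreated.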
# [2] = system: barnyardgrass (Echinochloa crus-galli); assay: Test A preemergence; conditions: for Plant response rating, Barnyardgrass: 125 g ai/ha, preemergence, 0 to 100 scale (0 no effect, 100 complete control); for Barnyardgrass plant response rating (0 to 100 scale, 0 is no effect, 100 is complete control): visual injury approx. 10 d
# In short: as §1
# [3] = system: giant foxtail (Setaria faberii); assay: Test A preemergence; conditions: for Plant response rating, Foxtail, Giant: 125 g ai/ha, preemergence, 0 to 100 scale (0 no effect, 100 complete control); for Foxtail, Giant plant response rating (0 to 100 scale, 0 is no effect, 100 is complete control): visual injury approx. 10 d
# In short: as §1
# [4] = system: pigweed (Amaranthus retroflexus); assay: Test A preemergence; conditions: for Plant response rating, Pigweed: 125 g ai/ha, preemergence, 0 to 100 scale (0 no effect, 100 complete control); for Pigweed plant response rating (0 to 100 scale, 0 is no effect, 100 is complete control): visual injury approx. 10 d
# [5] = system: ragweed (common ragweed, Ambrosia elatior); assay: Test A preemergence; conditions: for Plant response rating, Ragweed: 125 g ai/ha, preemergence, 0 to 100 scale (0 no effect, 100 complete control); for Ragweed plant response rating (0 to 100 scale, 0 is no effect, 100 is complete control): visual injury approx. 10 d
# In short: as §1
# [6] = system: ryegrass, Italian (Italian ryegrass, Lolium multiflorum); assay: Test A preemergence; conditions: for Plant response rating, Ryegrass, Italian: 125 g ai/ha, preemergence, 0 to 100 scale (0 no effect, 100 complete control); for Ryegrass, Italian plant response rating (0 to 100 scale, 0 is no effect, 100 is complete control): visual injury approx. 10 d
# In short: as §1
# [7] = system: Galium (catchweed bedstraw, Galium aparine); assay: Test A postemergence; conditions: postemergence; for Galium plant response rating: 125 g ai/ha, visual injury rating on 0 to 100 scale (0 no effect, 100 complete control), approx. 10 d; for Plant response rating, Galium: 500 g ai/ha, 0 to 100 scale, 0 no effect, 100 complete control
# In short: as §1
# [8] = system: Kochia (Kochia scoparia); assay: Test A postemergence; conditions: postemergence; for Kochia plant response rating: 125 g ai/ha, visual injury rating on 0 to 100 scale (0 no effect, 100 complete control), approx. 10 d; for Plant response rating, Kochia: 500 g ai/ha, 0 to 100 scale, 0 no effect, 100 complete control
# In short: as §1
# [9] = system: barnyardgrass (Echinochloa crus-galli); assay: Test A postemergence; conditions: for Barnyardgrass plant response rating: visual injury rating on 0 to 100 scale (0 no effect, 100 complete control)
# In short: as §1
# [10] = system: blackgrass (Alopecurus myosuroides); assay: Test A postemergence; conditions: for Blackgrass plant response rating: visual injury rating on 0 to 100 scale (0 no effect, 100 complete control)
# In short: as §1
# [11] = system: corn (Zea mays); assay: Test A postemergence; conditions: postemergence; for Corn plant response rating: 125 g ai/ha, visual injury rating on 0 to 100 scale (0 no effect, 100 complete control), approx. 10 d; for Plant response rating, Corn: 500 g ai/ha, 0 to 100 scale, 0 no effect, 100 complete control
# In short: as §1
# [12] = system: giant foxtail (Setaria faberii); assay: Test A postemergence; conditions: postemergence; for Foxtail, Giant plant response rating: 125 g ai/ha, visual injury rating on 0 to 100 scale (0 no effect, 100 complete control), approx. 10 d; for Plant response rating, Foxtail, Giant: 500 g ai/ha, 0 to 100 scale, 0 no effect, 100 complete control
# In short: as §1
# [13] = system: pigweed (Amaranthus retroflexus); assay: Test A postemergence; conditions: postemergence; for Pigweed plant response rating: 125 g ai/ha, visual injury rating on 0 to 100 scale (0 no effect, 100 complete control), approx. 10 d; for Plant response rating, Pigweed: 500 g ai/ha, 0 to 100 scale, 0 no effect, 100 complete control
# In short: as §1
# [14] = system: ragweed (common ragweed, Ambrosia elatior); assay: Test A postemergence; conditions: postemergence; for Ragweed plant response rating: 125 g ai/ha, visual injury rating on 0 to 100 scale (0 no effect, 100 complete control), approx. 10 d; for Plant response rating, Ragweed: 500 g ai/ha, 0 to 100 scale, 0 no effect, 100 complete control
# In short: as §1
# [15] = system: ryegrass, Italian (Italian ryegrass, Lolium multiflorum); assay: Test A postemergence; conditions: postemergence; for Ryegrass, Italian plant response rating: 125 g ai/ha, visual injury rating on 0 to 100 scale (0 no effect, 100 complete control), approx. 10 d; for Plant response rating, Ryegrass, Italian: 500 g ai/ha, 0 to 100 scale, 0 no effect, 100 complete control
# In short: as §1
# [16] = system: wheat (Triticum aestivum); assay: Test A postemergence; conditions: postemergence; for Wheat plant response rating: 125 g ai/ha, visual injury rating on 0 to 100 scale (0 no effect, 100 complete control), approx. 10 d; for Plant response rating, Wheat: 500 g ai/ha, 0 to 100 scale, 0 no effect, 100 complete control
# In short: as §1
# [17] = system: barnyardgrass (Echinochloa crus-galli); assay: Test B flooded paddy test; conditions: Flood, 250 g ai/ha; 0 to 100 scale where 0 is no effect and 100 is complete control; 13 to 15 d
# In short: (§2)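 Plants at 2-leaf stage flooded to 3 cm above soil, with compounds applied directly to paddy water and that depth maintained. Plants kept in greenhouse 13–15 d. Visual rating versus controls on a 0 (no effect) to 100 (complete control) scale.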
# [18] = system: ducksalad (Heteranthera limosa); assay: Test B flooded paddy test; conditions: Flood, 250 g ai/ha; 0 to 100 scale where 0 is no effect and 100 is complete control; 13 to 15 d
# In short: as §2
# [19] = system: rice (Oryra sativa); assay: Test B flooded paddy test; conditions: Flood, 250 g ai/ha; 0 to 100 scale where 0 is no effect and 100 is complete control; 13 to 15 d
# In short: as §2
# [20] = system: sedge, umbrella (small-flower umbrella sedge, Cyperus difformis); assay: Test B flooded paddy test; conditions: Flood, 250 g ai/ha; 0 to 100 scale where 0 is no effect and 100 is complete control; 13 to 15 d
# In short: as §2
# [21] = Preemergence, 500 g ai/ha, 0 is no effect, 100 is complete control
# [22] = 500 g ai/ha, postemergence, 0 to 100 scale, 0 no effect, 100 complete control
# [23] = Postemergence, 125 g ai/ha, visual injury, 0 to 100 scale (0 no effect, 100 complete control), approx. 10 d
# [24] = 125 g ai/ha, postemergence, approx. 10 d
Structure (SMILES),"Plant response rating, Kochia [1]","Plant response rating, Barnyardgrass [2]","Plant response rating, Foxtail, Giant [3]","Plant response rating, Pigweed [4]","Plant response rating, Ragweed [5]","Plant response rating, Ryegrass, Italian [6]",Galium plant response rating [7],"Plant response rating, Galium [7]",Kochia plant response rating [8],"Plant response rating, Kochia [8]","Plant response rating, Barnyardgrass [9, 22]","Plant response rating, Blackgrass [10, 22]",Corn plant response rating [11],"Plant response rating, Corn [11]","Foxtail, Giant plant response rating [12]","Plant response rating, Foxtail, Giant [12]",Pigweed plant response rating [13],"Plant response rating, Pigweed [13]",Ragweed plant response rating [14],"Plant response rating, Ragweed [14]",further results
CN1CC(c2ccc(C(F)(F)F)c(F)c2)C(C(=O)Nc2cccc(F)c2F)C1=O (stereo not drawn) [Compound 396],80,90,90,90,0,60,60,60,60,70,90,60,70,80,80,90,60,70,0,0,"Kochia plant response rating (0 to 100 scale) [1, 21]: 80; Barnyardgrass plant response rating (0 to 100 scale) [2, 21]: 90; Foxtail, Giant plant response rating (0 to 100 scale) [3, 21]: 90; Pigweed plant response rating (0 to 100 scale) [4, 21]: 90; Ragweed plant response rating (0 to 100 scale) [5, 21]: 20; Ryegrass, Italian plant response rating (0 to 100 scale) [6, 21]: 70; Plant response rating, Barnyardgrass [9, 23]: 70; Plant response rating, Blackgrass [10, 23]: 50; Ryegrass, Italian plant response rating [15]: 50; Plant response rating, Ryegrass, Italian [15]: 70; Wheat plant response rating [16]: 20; Plant response rating, Wheat [16]: 70; Plant response rating, Barnyardgrass [17]: 40; Plant response rating, Ducksalad [18]: 40; Plant response rating, Rice [19]: 30; Plant response rating, Sedge, Umbrella [20]: 0"
CN1CC(c2ccc(C(F)(F)F)c(F)c2)C(C(=O)Nc2ccccc2F)C1=O (stereo not drawn) [Compound 399],80,90,90,70,50,20,50,50,50,60,90,60,50,70,90,90,30,40,0,0,"Kochia plant response rating (0 to 100 scale, 0 is no effect, 100 is complete control) ([1]; Preemergence, 500 g ai/ha): 80; Barnyardgrass plant response rating (0 to 100 scale, 0 is no effect, 100 is complete control) ([2]; Preemergence, 500 g ai/ha): 90; Foxtail, Giant plant response rating (0 to 100 scale, 0 is no effect, 100 is complete control) ([3]; Preemergence, 500 g ai/ha): 90; Pigweed plant response rating (0 to 100 scale, 0 is no effect, 100 is complete control) ([4]; Preemergence, 500 g ai/ha): 90; Ragweed plant response rating (0 to 100 scale, 0 is no effect, 100 is complete control) ([5]; Preemergence, 500 g ai/ha): 50; Ryegrass, Italian plant response rating (0 to 100 scale, 0 is no effect, 100 is complete control) ([6]; Preemergence, 500 g ai/ha): 60; Barnyardgrass plant response rating [9, 24]: 90; Blackgrass plant response rating [10, 24]: 40; Ryegrass, Italian plant response rating [15]: 40; Plant response rating, Ryegrass, Italian [15]: 40; Wheat plant response rating [16]: 40; Plant response rating, Wheat [16]: 60; Plant response rating, Barnyardgrass [17]: 65; Plant response rating, Ducksalad [18]: 100; Plant response rating, Rice [19]: 0; Plant response rating, Sedge, Umbrella [20]: 0"
O=C1NCC(c2ccc(Br)cc2)C1C(=O)Nc1cccc(F)c1F (stereo not drawn) [Compound 446],50,90,90,40,50,20,50,50,60,60,90,50,20,30,90,90,50,60,0,20,"Kochia plant response rating (0 to 100 scale, 0 is no effect, 100 is complete control) ([1]; Preemergence, 500 g ai/ha): 50; Barnyardgrass plant response rating (0 to 100 scale, 0 is no effect, 100 is complete control) ([2]; Preemergence, 500 g ai/ha): 90; Foxtail, Giant plant response rating (0 to 100 scale, 0 is no effect, 100 is complete control) ([3]; Preemergence, 500 g ai/ha): 90; Pigweed plant response rating (0 to 100 scale, 0 is no effect, 100 is complete control) ([4]; Preemergence, 500 g ai/ha): 60; Ragweed plant response rating (0 to 100 scale, 0 is no effect, 100 is complete control) ([5]; Preemergence, 500 g ai/ha): 50; Ryegrass, Italian plant response rating (0 to 100 scale, 0 is no effect, 100 is complete control) ([6]; Preemergence, 500 g ai/ha): 60; Barnyardgrass plant response rating [9, 24]: 80; Blackgrass plant response rating [10, 24]: 50; Ryegrass, Italian plant response rating [15]: 20; Plant response rating, Ryegrass, Italian [15]: 30; Wheat plant response rating [16]: 0; Plant response rating, Wheat [16]: 50; Plant response rating, Barnyardgrass [17]: 75; Plant response rating, Ducksalad [18]: 100; Plant response rating, Rice [19]: 0; Plant response rating, Sedge, Umbrella [20]: 0"
Cc1ccc(C2CN(C)C(=O)C2C(=O)Nc2ccccc2F)cc1F (stereo not drawn) [Compound 465],80,90,100,50,40,70,60,60,50,60,90,70,80,90,90,90,0,20,0,30,"Kochia plant response rating (0 to 100 scale, 0 is no effect, 100 is complete control) ([1]; Preemergence, 500 g ai/ha): 80; Barnyardgrass plant response rating (0 to 100 scale, 0 is no effect, 100 is complete control) ([2]; Preemergence, 500 g ai/ha): 100; Foxtail, Giant plant response rating (0 to 100 scale, 0 is no effect, 100 is complete control) ([3]; Preemergence, 500 g ai/ha): 100; Pigweed plant response rating (0 to 100 scale, 0 is no effect, 100 is complete control) ([4]; Preemergence, 500 g ai/ha): 70; Ragweed plant response rating (0 to 100 scale, 0 is no effect, 100 is complete control) ([5]; Preemergence, 500 g ai/ha): 70; Ryegrass, Italian plant response rating (0 to 100 scale, 0 is no effect, 100 is complete control) ([6]; Preemergence, 500 g ai/ha): 70; Barnyardgrass plant response rating [9, 24]: 90; Blackgrass plant response rating [10, 24]: 40; Ryegrass, Italian plant response rating [15]: 60; Plant response rating, Ryegrass, Italian [15]: 70; Wheat plant response rating [16]: 60; Plant response rating, Wheat [16]: 70; Plant response rating, Barnyardgrass [17]: 80; Plant response rating, Ducksalad [18]: 100; Plant response rating, Rice [19]: 0; Plant response rating, Sedge, Umbrella [20]: 0"
